Patent US5741785A, “Heterocyclic compounds, their preparation and use” (Novo Nordisk A/S, priority 1994, dated 1998)

Tests used:
AMPA receptor = details: reported in J. Med. Chem., 35, 3319-3324, 1992; cited from earlier work
AMPA type receptors = experiment: 3H-AMPA binding (Test 1), rat cerebral cortical membrane homogenate; details: 5 nM 3H-AMPA, 0° C., 30 min, pH 7.1, Hill analysis; read-out: IC50 (50% displacement of the specific binding of 3H-AMPA), TEST 1
Description: AMPA receptor binding may be studied by using ^3 H-AMPA as radioligand.
The pharmacological properties of the compounds of the present invention can be illustrated by determining their capability for displacing radioactively labelled 2-amino-3-hydroxy-5-methyl-4-isoxazolepropionic acid (AMPA) from the AMPA type receptors.
The displacement activity of the compounds may be shown by determining the IC50 value which represents the concentration (μM) which causes a displacement of 50% of the specific binding of ^3 H-AMPA.
^3 H-AMPA binding (Test 1)
500/μl of thawed rat cerebral cortical membrane homogenate in Tris-HCl (30 mM), CaCl2 (2.5 mM) and KSCN (100 mM) pH 7.1 were incubated at 0° C. for 30 min. with 25 μl ^3 H-AMPA (5 nM final concentration) and the test compound and buffer. Nonspecific binding was determined by incubation with L-glutamic acid (600/μM final concentration). The binding reaction was terminated by adding 5 ml of ice-cold buffer followed by filtration through Whatman GF/C glass fibre filters and 2×5 ml wash with ice-cold buffer. Bound radioactivity was measured by scintillation counting. IC50 was determined by Hill analysis of at least four concentrations of test compound.

[1] = system: quisqualic acid stimulated spreading depression in chicken retina; experiment: Spreading depression (Test 2), quisqualic acid stimulated, chicken retina; format: cell-based; details: Gallus gallus, quisqualate 1 μg/ml, 15 min preincubation, 26° C., read-out: IC50 (50% maximal inhibition of quisqualic acid stimulated spreading depression), TEST 2
Description: The influence of glutamic acid analogues on secondary effects of glutamate receptor interactions may be studied in vitro by using the phenomenon of spreading depression in chicken retina. Such experiments will provide information as to the efficacies (agonist/antagonist) of the test substances. This is in contrast to binding studies, which only provide information on the affinities of the compounds for the receptor.
The pharmacological properties of the compounds of the present invention can be illustrated by determining their capability for displacing radioactively labelled 2-amino-3-hydroxy-5-methyl-4-isoxazolepropionic acid (AMPA) from the AMPA type receptors. […]
The eyes were initially incubated in normal P.S.S. for 15-30 min. and then transferred to P.S.S. containing quisqualate (1 μg/ml). In this "stimulating solution" S.D.s start spontaneously usually from the edge of the retina, and can be easily observed by eye, The time taken for an S.D. to start in each eye was measured.
After a further 15 min. of incubation in normal P.S.S. the eyes were transferred to normal P.S.S, containing the test compound and incubated for 15 min. […] The time taken for an S.D. to start in each eye was measured again. The eyes were then placed back in normal P.S.S. and after 15 min. the time taken for S.D. to start was measured again, in order to assess the degree of recovery from any drug effects. […]

SMILES	affinity for the AMPA receptor (AMPA receptor)	IC50 (AMPA type receptors) [nM]	IC50 [1] [nM]
O=c1[nH]c2cc(Cl)c(Cl)cc2n2ccnc12 [7,8-dichloro-imidazo[1,2-a]quinoxaline-4(5H)-one]	reasonable affinity		
Cc1c(C(=O)O)nc2c(=O)[nH]c3cc(C(F)(F)F)ccc3n12 [Example 2, 2-Carboxy-1-methyl-7-trifluoromethylimidazo[1,2-a]quinoxalin-4(5H)-one]		450	1100
